Assay results reported in publication PMC3953730 (FEBS Open Bio, 2014).

Biological target: β-secretase 1 (BACE1) (Homo sapiens, UniProt P56817)
Test: in vitro fluorogenic peptide cleavage assay, dose response
Assay type: biochemical

β-secretase 1 (BACE1), sequence (P56817 46-457): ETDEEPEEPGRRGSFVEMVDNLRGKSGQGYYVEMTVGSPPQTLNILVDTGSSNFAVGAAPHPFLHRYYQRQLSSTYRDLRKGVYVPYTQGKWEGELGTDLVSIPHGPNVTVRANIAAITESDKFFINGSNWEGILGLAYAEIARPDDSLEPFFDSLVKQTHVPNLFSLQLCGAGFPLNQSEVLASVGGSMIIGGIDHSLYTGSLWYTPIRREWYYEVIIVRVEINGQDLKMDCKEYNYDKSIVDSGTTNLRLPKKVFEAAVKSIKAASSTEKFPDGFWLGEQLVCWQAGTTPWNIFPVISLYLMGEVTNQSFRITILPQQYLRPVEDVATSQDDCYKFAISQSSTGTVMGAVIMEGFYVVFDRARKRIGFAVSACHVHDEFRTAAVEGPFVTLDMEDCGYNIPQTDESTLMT

IC50: ~250 nM
SMILES: O=P(O)(O)O[C@H]1[C@H](OP(=O)(O)O)[C@@H](OP(=O)(O)O)[C@H](OP(=O)(O)O)[C@@H](OP(=O)(O)O)[C@H]1OP(=O)(O)O [IP6, myo-inositol hexakisphosphate]
